# In patent US20250129069A1, “TRIAZOLO WRN INHIBITORS” (Nimbus Wadjet, Inc., priority 2023, published 2025):
# Where two headings read alike, the source gives them in different places.
# Columns and labels:
# [1] = test system: p21 induction in HCT 116 cells; assay: p21 induction in cells (In-Cell Western, p21/GAPDH ratio); type: cell-based; settings: 24 h compound incubation, read-out: p21_EC50
# How it was run: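 HCT 116 cells treated 24 h at 37° C with 11-point, 2-fold dilutions typically from 10 μM, in duplicate. Fixed cells co-stained for p21 (800 nm) and GAPDH (700 nm) by In-Cell Western. p21/GAPDH ratio normalised between DMSO and reference WRN inhibitor controls, and EC50 obtained by nonlinear regression.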
# [2] = biological target: human Werner helicase (WRN, amino acids 517-1235 with L1074F point mutation) (Homo sapiens (Human), UniProt Q14191, L1074F); assay: WRN (BV08) ADP-Glo assay; type: biochemical; settings: human WRN (aa 517-1235, L1074F), read-out: ADP-Glo_hWRN_IC50
# human Werner helicase (WRN, amino acids 517-1235 with L1074F point mutation), sequence (Q14191 other isoform, or with tags, fused parts or gaps L1074F (already in the parent)): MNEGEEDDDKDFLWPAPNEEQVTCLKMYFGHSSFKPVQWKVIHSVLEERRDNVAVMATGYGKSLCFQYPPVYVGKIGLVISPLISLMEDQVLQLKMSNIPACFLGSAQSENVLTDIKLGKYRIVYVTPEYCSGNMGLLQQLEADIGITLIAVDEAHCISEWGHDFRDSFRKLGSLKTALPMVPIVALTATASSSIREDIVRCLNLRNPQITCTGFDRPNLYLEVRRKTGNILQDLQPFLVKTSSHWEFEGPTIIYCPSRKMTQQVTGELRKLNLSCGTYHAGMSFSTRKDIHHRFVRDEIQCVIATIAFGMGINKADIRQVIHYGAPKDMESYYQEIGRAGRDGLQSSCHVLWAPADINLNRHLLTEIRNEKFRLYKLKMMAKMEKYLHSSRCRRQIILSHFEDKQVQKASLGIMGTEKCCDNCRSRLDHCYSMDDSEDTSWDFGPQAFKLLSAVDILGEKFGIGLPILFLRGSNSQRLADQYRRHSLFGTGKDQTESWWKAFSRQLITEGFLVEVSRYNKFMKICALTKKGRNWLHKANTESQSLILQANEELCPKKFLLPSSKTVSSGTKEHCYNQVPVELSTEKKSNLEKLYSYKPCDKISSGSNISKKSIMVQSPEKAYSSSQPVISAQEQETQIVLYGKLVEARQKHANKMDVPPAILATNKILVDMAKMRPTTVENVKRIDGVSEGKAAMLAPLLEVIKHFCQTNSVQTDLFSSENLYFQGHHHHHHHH
# Text: Bovine skin gelatin (BSG), dimethyl sulfoxide (DMSO), Pluronic F-127 and tris(2-carboxyethyl)phosphine hydrochloride solution (TCEP) were purchased from Sigma-Aldrich (St. Louis, MO) at the highest level of purity possible. Bicine buffer solution was purchased from Alfa Aesar (Tewksbury, MA) and compound NSC-617145 was purchased from Tocris (Minneapolis, MN). DNA duplex was synthesized at BGI (Shenzhen, China) and was composed of strand 1 with the sequence 5′-[…]-3′ (SEQ ID NO.: 1) and strand 2 with the sequence 5′-[…]-3′ (SEQ ID NO.: 2). DNA strands were annealed by heating to 95° C. for 5 minutes followed by slow cooling to room temperature. Compounds in 100% DMSO (0.1 μl) were spotted into a 384-well white polystyrene Optiplate-384 (Perkin Elmer; Waltham, MA) assay plate using a LabCyte Echo 550 (Agilent; Santa Clara, CA). DMSO (0.1 μl) was added to columns 12, rows A-H and column 24, rows I-P for the maximum signal control. Compound NSC-617145 (0.1 μl) was added to columns 12, rows I-P and 24, rows A-H for the minimum signal control (100% inhibition). Compounds/DMSO were preincubated for 15 minutes at 25° C. with 5 μl 2×WRN (BV08), prepared as described below, in assay buffer containing 20 mM Bicine (pH=7.5), 1 mM MgCl2, 10 mM KCl, 0.1% Pluronic F-127, 0.005% BSG, 1 mM TCEP. The reaction was initiated by the addition of 5 μl 2× substrate mixture in assay buffer and incubated for 60 minutes at 25° C. The final concentrations of the assay components were 0.15 nM WRN, 5 μM ATP, and 0.1 nM DNA duplex. The final DMSO concentration was 1% and the reference compound concentration (NSC-617145) used for the minimal signal control was 20 μM. The reaction was stopped by the addition of the ADP-Glo Kit components (Promega; Madison, WI) as directed and the relative luminescence units (RLU) were read on an Envision 2104 (Perkin Elmer; Waltham, MA).
# % inhibition calculation:
# % INH=(RLU MAX−RLU sample)/(RLU MAX−RLU MIN))×100
# Where RLU=relative luminescence units, sample=signal in sample well, and MIN and MAX are the respective minimum and maximum signal controls. Four-parameter IC50 fit equation:
# Y=Bottom+(Top−Bottom)/(1+(IC50/X)^Hill Slope)
# Where top and bottom are normally allowed to float but may be fixed at 100 or 0 respectively in a 3-parameter fit. Y is the % inhibition and X is the compound concentration.
# Molecular Biology and virus production. The DNA encoding human Werner helicase (Uniprot Q14191, amino acids 517-1235 with L1074F point mutation) was generated with codon-optimization for E. coli expression and subcloned into the pFastBac vector with a TEV cleavable 8×His tag (WRN—BV08). The baculovirus from the expression plasmid WRN—BV08 was generated from transfection and amplification following the manufacturer's instructions.
# Sf9 cells grown in SF900II media were infected with 1:200 WRN—BV08 P2 virus and incubated for protein expression for 72 h at 27° C. The WRN protein was purified using the following protocol. The cell pellets were thawed and resuspended in buffer A (50 mM Tris, pH 7.5, 500 mM NaCl, 1 mM TCEP, 10% Glycerol) supplemented with 0.5% CHAPS, 1 mM PMSF, […] Leupeptin, 1 μg/ml Pepstatin, and the Pierce Universal Nuclease and cocktail tablet. Cleared lysates were loaded onto a Ni Sepharose™ excel column and washed with buffer A and bound protein was eluted with buffer A supplemented with 300 mM imidazole. The eluted protein was dialyzed against buffer A and digested by His-tagged TEV (1:5 ratio) overnight at 4° C. ZnCl2 was added into the sample at final 15 μM before loading onto a second Ni Sepharose™ excel column. Untagged WRN protein was eluted from the column with buffer A supplemented with 20 mM imidazole, dialyzed overnight into buffer B (50 mM Tris, pH 7.5, 1 mM TCEP, 10% Glycerol) supplemented with 150 mM NaCl and loaded onto a Heparin column. Proteins were eluted with a step gradient of buffer B supplemented with 150 mM, 200 mM, 300 mM and 500 mM NaCl. […]
SMILES,EC50 [1],IC50 [2],EC50 ([1]; Homo sapiens)
"CCc1c(N2CCN(C(=O)c3ncnc(C)c3O)[C@H]3CC[C@@H]32)c(=O)c2nn(-c3ccnc(C)c3)nc2n1CC(=O)NC12CC(C3CC3)(C1)C2 [Compound I-84, N-{3-cyclopropylbicyclo[1.1.1]pentan-1-yl}-2-{5-ethyl-6-[(1S,6S)-5-(5-hydroxy-6-methylpyrimidine-4-carbonyl)-2,5-diazabicyclo[4.2.0]octan-2-yl]-2-(2-methylpyridin-4-yl)-7-oxo-2H,4H,7H-[1,2,3]triazolo[4,5-b]pyridin-4-yl}acetamide]",≤ 500 nM,5 to 50 nM,
"CCc1c(N2CCN(C(=O)c3cccnc3OC)[C@H]3CC[C@@H]32)c(=O)c2nn(C3=CCOCC3)nc2n1CC(=O)NC12CC(C(C)C)(C1)C2 [Compound I-198, 2-[2-(3,6-dihydro-2H-pyran-4-yl)-5-ethyl-6-[(1S,6S)-5-(2-methoxypyridine-3-carbonyl)-2,5-diazabicyclo[4.2.0]octan-2-yl]-7-oxo-2H,4H,7H-[1,2,3]triazolo[4,5-b]pyridin-4-yl]-N-[3-(propan-2-yl)bicyclo[1.1.1]pentan-1-yl]acetamide]",,5 to 50 nM,≤ 500 nM
"CCc1c(N2CCN(C(=O)c3ncnc(C)c3O)CC2)c(=O)c2nn(-c3ccnc(OC)c3)nc2n1CC(=O)Nc1ccc(C(F)(F)F)cc1Cl [Compound I-1, N-(2-chloro-4-(trifluoromethyl)phenyl)-2-(5-ethyl-6-(4-(5-hydroxy-6-methylpyrimidine-4-carbonyl)piperazin-1-yl)-2-(2-methoxypyridin-4-yl)-7-oxo-2,7-dihydro-4H-[1,2,3]triazolo[4,5-b]pyridin-4-yl)acetamide]",≤ 500 nM,5 to 50 nM,
"CCc1c(N2CCN(C(=O)c3[nH]ncc3OC)[C@H]3CC[C@@H]32)c(=O)c2nn(C3=CCOCC3)nc2n1CC(=O)NC12CC(C(C)C)(C1)C2 [Compound I-166, 2-[2-(3,6-dihydro-2H-pyran-4-yl)-5-ethyl-6-[(1S,6S)-5-(4-methoxy-1H-pyrazole-5-carbonyl)-2,5-diazabicyclo[4.2.0]octan-2-yl]-7-oxo-2H,4H,7H-[1,2,3]triazolo[4,5-b]pyridin-4-yl]-N-[3-(propan-2-yl)bicyclo[1.1.1]pentan-1-yl]acetamide]",,5 to 50 nM,500 to 2000 nM
"CCc1c(N2CCN(C(=O)c3csnc3OC)[C@H]3CC[C@@H]32)c(=O)c2nn(C3=CCOCC3)nc2n1CC(=O)NC12CC(C(C)C)(C1)C2 [Compound I-175, 2-[2-(3,6-dihydro-2H-pyran-4-yl)-5-ethyl-6-[(1S,6S)-5-(3-methoxy-1,2-thiazole-4-carbonyl)-2,5-diazabicyclo[4.2.0]octan-2-yl]-7-oxo-2H,4H,7H-[1,2,3]triazolo[4,5-b]pyridin-4-yl]-N-[3-(propan-2-yl)bicyclo[1.1.1]pentan-1-yl]acetamide]",,5 to 50 nM,≤ 500 nM
"CCc1c(N2CCN(C(=O)c3ncnc(C)c3O)[C@H]3CC[C@@H]32)c(=O)c2nn(-c3ccnc(C)c3)nc2n1CC(=O)Nc1ccc(C(F)(F)F)cc1Cl [Compound I-9, N-(2-chloro-4-(trifluoromethyl)phenyl)-2-(5-ethyl-6-((1S,6S)-5-(5-hydroxy-6-methylpyrimidine-4-carbonyl)-2,5-diazabicyclo[4.2.0]octan-2-yl)-2-(2-methylpyridin-4-yl)-7-oxo-2,7-dihydro-4H-[1,2,3]triazolo[4,5-b]pyridin-4-yl)acetamide]",,5 to 50 nM,≤ 500 nM
"CCc1c(N2CCN(C(=O)c3c(OC)ncc(C)c3O)CC2)c(=O)c2nn(-c3ccnc(OC)c3)nc2n1CC(=O)NC1CC2(C1)CC(F)(F)C2 [Compound I-104, N-{6,6-difluorospiro[3.3]heptan-2-yl}-2-{5-ethyl-6-[4-(4-hydroxy-2-methoxy-5-methylpyridine-3-carbonyl)piperazin-1-yl]-2-(2-methoxypyridin-4-yl)-7-oxo-2H,4H,7H-[1,2,3]triazolo[4,5-b]pyridin-4-yl}acetamide]",,50 to 100 nM,> 5000 nM
"CCc1c(N2CCN(C(=O)c3ncnc(C)c3O)[C@H]3CC[C@@H]32)c(=O)c2nn(-c3cc(C)n(C)n3)nc2n1CC(=O)NC1CC2(CCC2)C1 [Compound I-36, 2-[2-(1,5-dimethyl-1H-pyrazol-3-yl)-5-ethyl-6-[(1S,6S)-5-(5-hydroxy-6-methylpyrimidine-4-carbonyl)-2,5-diazabicyclo[4.2.0]octan-2-yl]-7-oxo-2H,4H,7H-[1,2,3]triazolo[4,5-b]pyridin-4-yl]-N-{spiro[3.3]heptan-2-yl}acetamide]",,5 to 50 nM,≤ 500 nM

# Results, then the molecule that gave them:
EC50 [1],IC50 [2],EC50 ([1]; Homo sapiens),SMILES
≤ 500 nM,5 to 50 nM,,"CCc1c(N2CCN(C(=O)c3ncnc(C)c3O)[C@H]3CC[C@@H]32)c(=O)c2nn(C3=CCOCC3)nc2n1CC(=O)NC12CC(C3CC3)(C1)C2 [Compound I-31, N-{3-cyclopropylbicyclo[1.1.1]pentan-1-yl}-2-[2-(3,6-dihydro-2H-pyran-4-yl)-5-ethyl-6-[(1S,6S)-5-(5-hydroxy-6-methylpyrimidine-4-carbonyl)-2,5-diazabicyclo[4.2.0]octan-2-yl]-7-oxo-2H,4H,7H-[1,2,3]triazolo[4,5-b]pyridin-4-yl]acetamide]"
,5 to 50 nM,500 to 2000 nM,"CCc1c(N2CCN(C(=O)c3ncnc(C)c3O)[C@H]3CC[C@@H]32)c(=O)c2nn(-c3ccnc(OC)c3)nc2n1CC(=O)NC1CC2(CC(C)C2)C1 (stereo partly drawn) [Compound I-88, 2-{5-ethyl-6-[(1S,6S)-5-(5-hydroxy-6-methylpyrimidine-4-carbonyl)-2,5-diazabicyclo[4.2.0]octan-2-yl]-2-(2-methoxypyridin-4-yl)-7-oxo-2H,4H,7H-[1,2,3]triazolo[4,5-b]pyridin-4-yl}-N-{6-methylspiro[3.3]heptan-2-yl}acetamide]"
,5 to 50 nM,≤ 500 nM,"CCc1c(N2CCN(C(=O)c3ncnc(C)c3O)CC2)c(=O)c2nn(-c3cc(C)n(C)n3)nc2n1CC(=O)Nc1ccc(C(F)(F)F)cc1Cl [Compound I-113, N-[2-chloro-4-(trifluoromethyl)phenyl]-2-[2-(1,5-dimethyl-1H-pyrazol-3-yl)-5-ethyl-6-[4-(5-hydroxy-6-methylpyrimidine-4-carbonyl)piperazin-1-yl]-7-oxo-2H,4H,7H-[1,2,3]triazolo[4,5-b]pyridin-4-yl]acetamide]"
,≤ 5 nM,≤ 500 nM,"CCc1c(N2CCN(C(=O)c3ncnc(C)c3O)[C@H]3CC[C@@H]32)c(=O)c2nn(-c3ccnc(OC)c3)nc2n1CC(=O)NC12CC(C3CCC3)(C1)C2 [Compound I-28, N-(3-cyclobutylbicyclo[1.1.1]pentan-1-yl)-2-(5-ethyl-6-((1S,6S)-5-(5-hydroxy-6-methylpyrimidine-4-carbonyl)-2,5-diazabicyclo[4.2.0]octan-2-yl)-2-(2-methoxypyridin-4-yl)-7-oxo-2,7-dihydro-4H-[1,2,3]triazolo[4,5-b]pyridin-4-yl)acetamide]"
